Source: US10793580B2, “Substituted pyrazoloazepin-8-ones and their use as phosphodiesterase inhibitors” (LEO Pharma A/S, priority 2016, dated 2020)

Molecular target: human PDE4D catalytic domain (Homo sapiens (Human), UniProt Q08499)
Assay: PDE4 Assay (TR-FRET, FAM-cAMP cleavage)
Format: biochemical
Conditions: Table 16, Examples 277-296; read-out: PDE4 IC50 range
Outline: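 Readout is Tb-to-FAM time-resolved FRET after nanoparticle capture of AMP, the product of cleaving a cAMP/FAM-cAMP mixture by PDE4D catalytic domain (S380-L740) in the presence of titrated compound. Values are IC50 ranges in nM: concentration halving substrate cleavage relative to controls.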

Sequence of human PDE4D catalytic domain (Q08499 380-740): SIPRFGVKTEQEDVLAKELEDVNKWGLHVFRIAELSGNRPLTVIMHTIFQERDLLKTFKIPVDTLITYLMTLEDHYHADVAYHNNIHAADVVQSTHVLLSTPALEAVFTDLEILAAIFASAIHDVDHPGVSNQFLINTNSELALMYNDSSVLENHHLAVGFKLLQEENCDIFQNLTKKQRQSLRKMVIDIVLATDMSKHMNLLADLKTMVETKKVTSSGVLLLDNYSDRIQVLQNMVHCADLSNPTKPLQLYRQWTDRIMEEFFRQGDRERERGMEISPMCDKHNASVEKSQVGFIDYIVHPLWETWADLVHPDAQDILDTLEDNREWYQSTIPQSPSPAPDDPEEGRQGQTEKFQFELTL

SMILES | IC50
CCn1nc(C[C@@H](C)COC(=O)C2CCN(C(=O)N(C)C)CC2)c2c1C(=O)NCC1(CCOCC1)C2 [Example 296, [(2R)-3-(1-ethyl-8-oxo-spiro[6,7-dihydro-4H-pyrazolo[3,4-c]azepine-5,4′-tetrahydropyran]-3-yl)-2-methyl-propyl] 1-(dimethylcarbamoyl)piperidine-4-carboxylate] | < 100 nM
CCn1nc(C[C@@H](C)COC(=O)C2CCN(C(C)=O)CC2)c2c1C(=O)NCC1(CCOCC1)C2 [Example 294, [(2R)-3-(1-ethyl-8-oxo-spiro[6,7-dihydro-4H-pyrazolo[3,4-c]azepine-5,4′-tetrahydropyran]-3-yl)-2-methyl-propyl] 1-acetylpiperidine-4-carboxylate] | < 100 nM
CCn1nc(C[C@@H](C)COC(=O)c2ccns2)c2c1C(=O)NCC1(CCOCC1)C2 [Example 283, [(2R)-3-(1-ethyl-8-oxo-spiro[6,7-dihydro-4H-pyrazolo[3,4-c]azepine-5,4′-tetrahydropyran]-3-yl)-2-methyl-propyl] isothiazole-5-carboxylate] | < 100 nM

Same assay, conditions: Table 17, Examples 297-316; read-out: PDE4 IC50 range

SMILES | IC50
CCn1nc(CC(C)(C)COC(=O)c2cnsc2)c2c1C(=O)NCC1(CCOCC1)C2 [Example 304, [3-(1-ethyl-8-oxo-spiro[6,7-dihydro-4H-pyrazolo[3,4-c]azepine-5,4′-tetrahydro-pyran]-3-yl)-2,2-dimethyl-propyl] isothiazole-4-carboxylate] | < 100 nM
CCn1nc(CC(C)(C)COC(=O)c2cn(C)cn2)c2c1C(=O)NCC1(CCOCC1)C2 [Example 300, [3-(1-ethyl-8-oxo-spiro[6,7-dihydro-4H-pyrazolo[3,4-c]azepine-5,4′-tetrahydropyran]-3-yl)-2,2-dimethyl-propyl] 1-methylimidazole-4-carboxylate] | < 100 nM

Same assay, conditions: human PDE4D catalytic domain (UniProt Q08499 [S380-L740]); 50% inhibition of substrate cleavage; read-out: PDE4 IC50 range

SMILES | IC50
CCn1nc(CC(C)(C)COC(=O)c2cccc(C(N)=O)c2)c2c1C(=O)NCC1(CCOCC1)C2 [Example 227, [3-(1-ethyl-8-oxo-spiro[6,7-dihydro-4H-pyrazolo[3,4-c]azepine-5,4′-tetrahydropyran]-3-yl)-2,2-dimethyl-propyl] 3-carbamoylbenzoate] | < 100 nM
CCn1nc(C[C@@H](C)COC(=O)c2cccc(C(=O)N3CCOCC3)c2)c2c1C(=O)NCC1(CCOCC1)C2 [Example 183, [(2R)-3-(1-ethyl-8-oxo-spiro[6,7-dihydro-4H-pyrazolo[3,4-c]azepine-5,4′-tetrahydropyran]-3-yl)-2-methyl-propyl] 3-(morpholine-4-carbonyl)benzoate] | < 100 nM
CCn1nc(CCCOC(=O)c2cccc(S(C)(=O)=O)c2)c2c1C(=O)NCC1(CCOCC1)C2 [Example 63, 3-(1-ethyl-8-oxo-spiro[6,7-dihydro-4H-pyrazolo[3,4-c]azepine-5,4′-tetrahydropyran]-3-yl)propyl 3-methylsulfonylbenzoate] | < 100 nM
CCn1nc(CCCOC(=O)c2cccc(C(=O)N3CCCC3)c2)c2c1C(=O)NCC1(CCOCC1)C2 [Example 116, 3-(1-ethyl-8-oxo-spiro[6,7-dihydro-4H-pyrazolo[3,4-c]azepine-5,4′-tetrahydropyran]-3-yl)propyl 3-(pyrrolidine-1-carbonyl)benzoate] | < 100 nM
CCn1nc(CCCOC(=O)c2ccc(C(=O)N3CCCC3)cc2)c2c1C(=O)NCC1(CCOCC1)C2 [Example 107, 3-(1-ethyl-8-oxo-spiro[6,7-dihydro-4H-pyrazolo[3,4-c]azepine-5,4′-tetrahydro-pyran]-3-yl)propyl 4-(pyrrolidine-1-carbonyl)benzoate] | < 100 nM
CCn1nc(CCCOC(=O)c2ccc(C)cc2OC)c2c1C(=O)NCC1(CCOCC1)C2 [Example 34, 3-(1-ethyl-8-oxo-spiro[6,7-dihydro-4H-pyrazolo[3,4-c]azepine-5,4′-tetrahydropyran]-3-yl)propyl 2-methoxy-4-methyl-benzoate] | < 100 nM
CCn1nc(CCCCOC(=O)c2ccc(S(C)(=O)=O)cc2)c2c1C(=O)NCC1(CCOCC1)C2 [Example 130, 4-(1-ethyl-8-oxo-spiro[6,7-dihydro-4H-pyrazolo[3,4-c]azepine-5,4′-tetrahydropyran]-3-yl)butyl 4-methylsulfonyl-benzoate] | < 100 nM
CCn1nc(CCOC(=O)c2cnsc2)c2c1C(=O)NCC1(CCOCC1)C2 [Example 275, 2-(1-ethyl-8-oxo-spiro[6,7-dihydro-4H-pyrazolo[3,4-c]azepine-5,4′-tetrahydropyran]-3-yl)ethyl isothiazole-4-carboxylate] | < 100 nM
CCn1nc(CCCOC(=O)c2cccc(C(=O)NC)c2)c2c1C(=O)NCC1(CCOCC1)C2 [Example 114, 3-(1-ethyl-8-oxo-spiro[6,7-dihydro-4H-pyrazolo[3,4-c]azepine-5,4′-tetrahydropyran]-3-yl)propyl 3-(methyl-carbamoyl)benzoate] | < 100 nM
CCn1nc(CCCOC(=O)c2ccc(C(F)F)cc2)c2c1C(=O)NCC1(CCOCC1)C2 [Example 45, 3-(1-ethyl-8-oxo-spiro[6,7-dihydro-4H-pyrazolo[3,4-c]azepine-5,4′-tetrahydropyran]-3-yl)propyl 4-(difluoromethyl)benzoate] | < 100 nM
CCn1nc(C[C@@H](C)COC(=O)c2cccc(C(=O)N3CCN(C(C)=O)CC3)c2)c2c1C(=O)NCC1(CCOCC1)C2 [Example 185, [(2R)-3-(1-ethyl-8-oxo-spiro[6,7-dihydro-4H-pyrazolo[3,4-c]azepine-5,4′-tetrahydropyran]-3-yl)-2-methyl-propyl] 3-(4-acetylpiperazine-1-carbonyl)benzoate] | < 100 nM
CCn1nc(C[C@@H](C)COC(=O)[C@H]2C[C@@H](O)C2)c2c1C(=O)NCC1(CCOCC1)C2 [Example 138, [(2R)-3-(1-ethyl-8-oxo-spiro[6,7-dihydro-4H-pyrazolo[3,4-c]azepine-5,4′-tetrahydropyran]-3-yl)-2-methyl-propyl] 3-hydroxy-cyclobutanecarboxylate] | < 100 nM
CCn1nc(CCCCOC(=O)c2ccc(C(N)=O)cc2)c2c1C(=O)NCC1(CCOCC1)C2 [Example 127, 4-(1-ethyl-8-oxo-spiro[6,7-dihydro-4H-pyrazolo[3,4-c]azepine-5,4′-tetrahydropyran]-3-yl)butyl 4-carbamoylbenzoate] | < 100 nM
CCn1nc(CCCOC(=O)c2cc(F)cc(Cl)c2)c2c1C(=O)NCC1(CCOCC1)C2 [Example 47, 3-(1-ethyl-8-oxo-spiro[6,7-dihydro-4H-pyrazolo[3,4-c]azepine-5,4′-tetrahydropyran]-3-yl)propyl 3-chloro-5-fluoro-benzoate] | < 100 nM
CCn1nc(CCCOC(=O)c2cc(C(F)(F)F)ccc2C)c2c1C(=O)NCC1(CCOCC1)C2 [Example 67, 3-(1-ethyl-8-oxo-spiro[6,7-dihydro-4H-pyrazolo[3,4-c]azepine-5,4′-tetrahydro-pyran]-3-yl)propyl 2-methyl-5-(trifluoromethyl)benzoate] | < 100 nM
CCn1nc(CCCOC(=O)c2cnsc2)c2c1C(=O)NCC1(CCOCC1)C2 [Example 243, 3-(1-ethyl-8-oxo-spiro[6,7-dihydro-4H-pyrazolo[3,4-c]azepine-5,4′-tetrahydropyran]-3-yl)propyl isothiazole-4-carboxylate] | < 100 nM
CCn1nc(CC(C)(C)COC(=O)c2cccc(C(=O)N3CCN(C(C)=O)CC3)c2)c2c1C(=O)NCC1(CCOCC1)C2 [Example 234, [3-(1-ethyl-8-oxo-spiro[6,7-dihydro-4H-pyrazolo[3,4-c]azepine-5,4′-tetrahydropyran]-3-yl)-2,2-dimethyl-propyl] 3-(4-acetylpiperazine-1-carbonyl)benzoate] | < 100 nM
CCn1nc(CCOC(=O)c2ccc(C)cc2)c2c1C(=O)NCC1(CCOCC1)C2 [Example 135, 2-(1-ethyl-8-oxo-spiro[6,7-dihydro-4H-pyrazolo[3,4-c]azepine-5,4′-tetrahydropyran]-3-yl)ethyl 4-methylbenzoate] | < 100 nM
CCn1nc(CCCCOC(=O)c2ccc(OC)cc2)c2c1C(=O)NCC1(CCOCC1)C2 [Example 125, 4-(1-ethyl-8-oxo-spiro[6,7-dihydro-4H-pyrazolo[3,4-c]azepine-5,4′-tetrahydropyran]-3-yl)butyl 4-methoxybenzoate] | < 100 nM
CCn1nc(CCCOC(=O)c2ccc(C(F)(F)F)c(OC)c2)c2c1C(=O)NCC1(CCOCC1)C2 [Example 83, 3-(1-ethyl-8-oxo-spiro[6,7-dihydro-4H-pyrazolo[3,4-c]azepine-5,4′-tetrahydro-pyran]-3-yl)propyl 3-methoxy-4-(trifluoromethyl)benzoate] | < 100 nM
CCn1nc(CCCOC(=O)c2cc(Cl)ccc2C(F)(F)F)c2c1C(=O)NCC1(CCOCC1)C2 [Example 87, 3-(1-ethyl-8-oxo-spiro[6,7-dihydro-4H-pyrazolo[3,4-c]azepine-5,4′-tetrahydro-pyran]-3-yl)propyl 5-chloro-2-(trifluoromethyl)benzoate] | < 100 nM
CCn1nc(CCCCOC(=O)c2ccc(F)cc2)c2c1C(=O)NCC1(CCOCC1)C2 [Example 124, 4-(1-ethyl-8-oxo-spiro[6,7-dihydro-4H-pyrazolo[3,4-c]azepine-5,4′-tetrahydropyran]-3-yl)butyl 4-fluorobenzoate] | < 100 nM
CCn1nc(CCCCOC(=O)C2CCCC2)c2c1C(=O)NCC1(CCOCC1)C2 [Example 122, 4-(1-ethyl-8-oxo-spiro[6,7-dihydro-4H-pyrazolo[3,4-c]azepine-5,4′-tetrahydropyran]-3-yl)butyl cyclopentane-carboxylate] | < 100 nM
CCn1nc(CCCOC(=O)c2cc(F)ccc2Cl)c2c1C(=O)NCC1(CCOCC1)C2 [Example 46, 3-(1-ethyl-8-oxo-spiro[6,7-dihydro-4H-pyrazolo[3,4-c]azepine-5,4′-tetrahydropyran]-3-yl)propyl 2-chloro-5-fluoro-benzoate] | < 100 nM
CCn1nc(CCCOC(=O)c2ccc(C)cc2F)c2c1C(=O)NCC1(CCOCC1)C2 [Example 18, 3-(1-ethyl-8-oxo-spiro[6,7-dihydro-4H-pyrazolo[3,4-c]azepine-5,4′-tetrahydropyran]-3-yl)propyl 2-fluoro-4-methyl-benzoate] | < 100 nM
